What was measured:
[1] = T-maze spontaneous alternation (TMSA) test; format: in vivo, mouse; details: IAA to young mice
Procedure: T-maze test. To evaluate the cognitive impairment without requirement of full motor function, modified T-Maze test (Deacon and Rawlins, 2006) was carried out. Mice were gently handled, habituated to the T-Maze apparatus, and subjected to food deprivation. On the forced alternation sample trial (T1), the animals were exposed to the T-maze with one of the arms opened and rewarded with pellet at end of the arm. The opposite arm was blocked by a guillotine door. The mouse was allowed to explore the open arm and consume the reward. Ten consecutive trials were performed, then the mouse was removed. After 30 min, retrieval testing (T2) was performed. The blocked arm was opened and the mouse was placed in the same start position. […] If the mouse entered the same arm as in T1, the mouse was confined for 10 seconds and this response was marked as an “Error”. Each mouse was subjected to 10 consecutive runs. Forced Alternation [%] was defined as the percent of mice first entering the novel arm during T2. […] The three- or four-day intersession interval is used to assess recognition memory performances.

S100A8 = assay: Western blot of S100A8 in p53 KO microglia after IAA; format: cell-based, mouse; details: p53 KO with CRISPR-Cas9, IAA 12 h
Procedure: (§1) Western blotting. Cells were treated as indicated in individual Figure legends and whole cell extracts (WCE) were prepared in the radioimmunoprecipitation assay (RIPA) buffer (Sigma) with addition of protease and phosphatase inhibitors (Roche). Proteins were separated by 10% SDS-PAGE and transferred to polyvinylidene difluoride (PVDF) membranes (Bio-Rad Laboratories, Inc., Hercules, CA). Dual color precision protein MW markers (BioRad) were separated in parallel. Antibodies were purchased as follows: cleaved-caspase-3 (ab214430), cleaved PARP (ab203467) and GAPDH (ab9657, Abcam) from Abcam; S100A8 (47310) and S100a9 (72590) from Cell Signaling; and Ltf (GTX81085) from GeneTex. The secondary antibodies conjugated to Fluors Alex-488 (A32723) or Alex-594 (A11012) were purchased from Invitrogen (Eugene, OR). The bands were visualized on the Odyssey Imager (LiCor Inc, Lincoln, NE).

microglial cells = assay: Western blot of cleaved caspase-3 and cleaved PARP in ex vivo cultured microglial cells; format: cell-based, mouse
Procedure: Isolation of microglia, neuron, astrocytes, and oligodendrocytes from the brain. Mice were anaesthetized with a mixture of ketamine (16%) and xylazine (3%) by intraperitoneal injection and then sacrificed under basal conditions by transcardial perfusion with perfusion buffer (Ca^2+/Mg^2+ free HBSS containing 0.5 mM EGTA, 10 mM HEPES and 4.2 mM NaHCO3; pH 7.2). The perfused brain was removed and gently mechanically disaggregated with tweezers in dissociation buffer (HBSS containing 10 mM HEPES and 4.2 mM NaHCO3 supplemented with Type I collagenase (0.05%), Dispase II (25 mg/ml), DNase I (2.5 mg/ml), trypsin inhibitor ([…]); pH 7.5) followed by incubation at 37° C. for 1 hour. The tissue homogenate was centrifuged at 1,350×g for 5 minutes at 4° C. For the isolation of microglia, the digestion enzymes in the tissue homogenate were inactivated by addition of PBS/EDTA containing 5% fetal bovine serum (FBS) and the digested brain bits were triturated gently, passed over a 100 µm filter (Fisher Scientific) and centrifuged. […] The pellet of cells was rinsed in PBS. Any contaminating red blood cells (RBC) were lysed using RBC lysis buffer (Sigma) according to the manufacturer's instructions, rinsed twice with PBS and passed through a 40 µm filter (Fisher Scientific). Cells were then stained for CD11b and CD45 for flow cytometry analysis. The astrocytes were isolated from mouse cortices (n=10). The tissue homogenate was centrifuged at 800×g for 10 minutes at 4° C. following digestion with type II collagenase (1 mg/ml) and type I DNase (10 U/ml) in DMEM for 10 minutes. The cells pelleted by centrifugation were plated in a 100 mm culture dish coated with poly-L-ornithine (Sigma). For the isolation of oligodendrocytes, the glial cells above were cultured in specific media containing T3 and T4 (0.5 mM) as well as platelet-derived growth factor (PDGF, 10 ng/ml) to promote the growth of the different cell types. Isolated glial cells were labelled with the following antibodies against surface markers: CD11b (Biolegend, Cat #101206), CD45 (Biolegend, Cat #147710), GFAP (Biolegend, Cat #837508) and MOG (Biorbyt, Cat #orb412341-FITC). Cells positive for CD11b and CD45Med were identified as microglia. Cells positive for GFAP and negative for CD45 and CD11b were identified as astrocytes. Cells sorted with MOG+CD11b− were identified as oligodendrocytes. Neurons were isolated from mouse brain using the Pierce Primary Neuron Isolation Kit (Thermo Scientific, Cat #88280). Briefly, the tissue homogenate from freshly dissected cortexes was suspended in an equal volume of ice cold HBSS (Sigma) and replaced with Neuronal Isolation Enzyme (with papain) in a 37° C. incubator for 30 minutes. After washing with HBSS, the tissue was cultured in a poly-D-lysine coated plate with Neuronal Culture Medium.
as §1

[2] = Electroencephalography (EEG) recording in mice; format: in vivo, mouse
Procedure: Electroencephalography (EEG) recording in mice. Groups of mice were anesthetized by peritoneal administration of ketamine (90 mg/kg) and xylazine (10 mg/kg) mixture. Mice that were not responsive to nociceptive stimuli were consider anesthetized and were administered the analgesic buprenorphine (0.1 mg/kg). The fur of the skull area was removed, placed on surgical bench and skin area were cleaned with betadine and 70% ethyl alcohol. The midline scalp skin was lifted using forceps and an incision made from the frontal cranial bone to the back of the parietal cranial bones. The skin was push aside and cleaned with betadine using cotton swabs. The skull was cleaned and marked for placement of electrodes. Two craniotomies 0.25-0.5 mm in diameter on the side of each hemisphere were established a 3 mm distance from the midline vertical fissure in the frontal and occipital regions; a hand-held drill (Kopf) with matching drill bits (0.5 mm) was used for the craniotomies. Four electrodes were placed in appropriate skull holes over the frontal cortex (FC) and occipital cortex (OC). A ground/reference electrode was also implanted in the most anterior region of cerebellum. Thus, two independent EEG channels were created for FC and OC on each side of the hemisphere. […]

[3] = added to ex vivo cultured microglial cells from young mice

With `CC(C)CCN` [IAA, isoamylamine] the “deficit of spatial learning in the TMSA (percentage of correct choices)” value ([1]; phage to aged mice) was “induced the deficit”, the “percentage of alternating choices (exploring new arm), TMSA” value ([1]; phage^TSD-27 to aged mice) was “reduced young mice exploring the new path” and the “S100A8 induced by IAA (western blot)” value (S100A8) was “p53 dependent”. The “effect on the microglia (cleaved caspase-3)” value (microglial cells; S100A8 deficient microglia cells) was “abolished”, the “cleaved caspase-3” value (microglial cells; [3]) was “increasing” and the “cleaved poly(-ADP-ribose) polymerase (PARP)” value (microglial cells; [3]) was “increasing”. The EEG rhythms coherence ([2]; IAA mice vs control, phage to aged mice) was “incoherence” and the “distributions of DSA (bilateral symmetry)” value ([2]; IAA-treated young mice, phage-treated aged mice) was “asymmetric bilaterally”.

Source: patent US20250136997A1, “COMPOSITIONS FOR SEQUESTERING ISOAMYL AMINE AND METHODS OF USE THEREFOR” (University of Louisville Research Foundation, Inc., priority 2023, published 2025)
